Reference: PMC9794768, “Molecular mechanism of substrate recognition by folate transporter SLC19A1” (Cell Discovery, 2022)

How the values were obtained:
[1] = target: T1, SLC19A1 (Homo sapiens, UniProt P41440); test: [3H]-MTX uptake competition in HEK293F cells at […]; FSEC-based thermostability in detergent lysate; format: cell-based; set-up: GFP-tagged SLC19A1
T1 sequence (P41440 1-591): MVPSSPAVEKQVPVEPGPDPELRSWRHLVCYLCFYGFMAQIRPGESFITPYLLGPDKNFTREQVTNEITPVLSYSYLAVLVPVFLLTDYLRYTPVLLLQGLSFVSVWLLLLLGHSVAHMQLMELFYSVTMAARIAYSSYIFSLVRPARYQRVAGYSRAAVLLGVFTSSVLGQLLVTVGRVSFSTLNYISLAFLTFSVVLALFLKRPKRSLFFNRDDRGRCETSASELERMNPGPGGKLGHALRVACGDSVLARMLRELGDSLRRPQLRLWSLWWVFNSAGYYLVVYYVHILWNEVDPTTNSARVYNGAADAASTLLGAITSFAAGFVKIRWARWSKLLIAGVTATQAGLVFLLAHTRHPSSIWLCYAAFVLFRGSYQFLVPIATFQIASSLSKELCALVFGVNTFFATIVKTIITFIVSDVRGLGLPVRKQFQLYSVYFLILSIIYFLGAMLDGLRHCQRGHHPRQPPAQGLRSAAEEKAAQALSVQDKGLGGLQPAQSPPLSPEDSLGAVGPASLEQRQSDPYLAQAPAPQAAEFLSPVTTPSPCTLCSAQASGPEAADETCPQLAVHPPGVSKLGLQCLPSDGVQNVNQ

[2] = target: T1, SLC19A1; test: cryo-EM structure at […] Å and MST; also [3H]-MTX uptake inhibition (IC50 […]) and FSEC thermostability; format: binding; set-up: full-length SLC19A1 (MST); BRIL-SLC19A1/Fab/Nb (cryo-EM)
[3] = target: T1, SLC19A1; test: FSEC-based thermostability in detergent lysate; [3H]-MTX uptake competition in HEK293F cells at […]; format: cell-based; set-up: GFP-tagged SLC19A1

## Cc1ncc(C[n+]2csc(CCOP(=O)(O)O)c2C)c(N)n1 [TMP, Thiamine monophosphate]
[1]
  [3H]-MTX uptake competition in HEK293F cells at 200 μM; FSEC-based thermostabili: TMP effectively competed with [^3H]-MTX in the transporter assay and enhanced the thermostability of SLC19A1

## Cc1ncc(C[n+]2csc(CCO[P@](=O)(O)OP(=O)(O)O)c2C)c(N)n1 [TPP, thiamine pyrophosphate]
[2]
  Kd: 327 ± 76 µM

## Nc1nc(=O)c2nc(CNc3ccc(C(=O)N[C@@H](CCC(=O)O)C(=O)O)cc3)cnc2[nH]1 [folate]
[3]
  FSEC-based thermostability in detergent lysate; [3H]-MTX uptake competition in H: the well-documented substrates 5-MTHF and folate significantly enhanced the thermostability of SLC19A1
